# Test results as given in patent US20170273961A1, “NOVEL IMINONITRILE DERIVATIVES” (CURADEV PHARMA, PVT. LTD., priority 2014, published 2017).
# Target: T1, IDO1 (Mus musculus, UniProt P28776)
# T1 construct: LPS-injected mice have been used as models to study IDO1 expression and activity; from tissue; host or cells: whole animal: LPS-injected C57BL/6 mice, with IDO1 induced in a variety of tissues
# Experiment: Reduction of LPS induced plasma kynurenine levels in C57BL/6 mice
# Assay type: in vivo
# Conditions: LPS-injected (6 mg/kg i.p.) C57BL/6 mice; test compound given orally 20 h after LPS; plasma KYN by LC/MS/MS at 2 hr post dosing
# Source text: Inflammatory mediators such as Lipopolysaccharides (LPS) and Interferon-gamma (IFNg) are well-established inducers of IDO1 expression. Intraperitoneal (i.p.) administration of bacterial lipopolysaccharide (LPS) induces peak IDO1 activity in a variety of tissues within one day after LPS administration resulting in the production and release of kynurenine into the bloodstream (Takikawa, O., et al. (1986) J. Biol. Chem. 261:3648-53; Yoshida, H., et al. (1998) Cell 94:739-750). LPS-injected mice have been used as models to study IDO1 expression and activity. Three—eight fed C57 BL/6 mice (age 7-8 weeks, weight: about 20-22 g) were injected intrapritoneally with bacterial lipopolysaccharide (LPS; 26:B6 Sigma) at a concentration of 6 mg/kg. Animals were then housed in normal condition for 20 hours at which time the test compounds were administered orally in formulation containing 30% polyethylene glycol 400 (PEG 400) and 20% propylene glycol (PG) in normal saline (Dosing volume 10 mL/kg). Blood was drawn through retro-orbital bleeds into a tube containing 100 mM EDTA for plasma collection at the following times: just prior to LPS treatment, just prior to test compound dosing (0 hr) and then at 2 hr, 4 hr, 6 hr, 8 hr, 24 hr and 48 hr post-test compound dosing. Plasma KYN and drug levels were determined by LC/MS/MS using an API4000 mass spectrometer (Applied Biosystems) coupled to a Shimadzu Prominence LC system fitted with a C18 column.
# The compounds of the invention decrease kynurenine levels. The compounds of the invention trigger a decrease of kynurenine levels at 2 hrs of at least 5%.
# T1 sequence (P28776 whole entry): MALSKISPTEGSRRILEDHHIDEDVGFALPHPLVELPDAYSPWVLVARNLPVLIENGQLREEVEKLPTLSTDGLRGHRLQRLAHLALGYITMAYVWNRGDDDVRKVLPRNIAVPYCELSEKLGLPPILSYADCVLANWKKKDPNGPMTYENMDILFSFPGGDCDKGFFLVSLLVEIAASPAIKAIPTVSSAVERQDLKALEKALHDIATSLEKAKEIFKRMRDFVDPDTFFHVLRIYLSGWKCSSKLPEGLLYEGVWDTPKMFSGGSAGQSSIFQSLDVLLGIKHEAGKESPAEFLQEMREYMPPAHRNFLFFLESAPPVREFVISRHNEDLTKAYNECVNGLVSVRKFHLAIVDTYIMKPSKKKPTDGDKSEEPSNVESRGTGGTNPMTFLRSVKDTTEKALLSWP
row,percentage of decrease of kynurenine level at two hours [%],SMILES
1,87,"N#C/C(=N\c1cccc(Cl)c1)c1ccnc(-c2ccncc2)c1O [Compound 22, N-(3-Chlorophenyl)-3-hydroxy-[2,4′-bipyridine]-4-carbimidoyl nitrile]"
2,79,"Cc1cc(-c2nccc(/C(C#N)=N/c3cccc(Cl)c3)c2O)ccn1 [Compound 23, N-(3-Chlorophenyl)-3-hydroxy-2′-methyl-[2,4′-bipyridine]-4-carbimidoyl nitrile]"
3,80,"N#C/C(=N\c1cccc(Cl)c1)c1ccncc1O [Compound 33, N-(3-Chlorophenyl)-3-hydroxyisonicotinimidoyl nitrile]"

# Second part, the compound before the results:
row,SMILES,percentage of decrease of kynurenine level at two hours [%]
1,"CNC(=O)c1cc(-c2nccc(/C(C#N)=N/c3cccc(Cl)c3)c2O)ccn1 [Compound 30, N-(3-Chlorophenyl)-3-hydroxy-2′-(methylcarbamoyl)-[2,4′-bipyridine]-4-carbimidoyl nitrile]",64
2,"Cc1cc(-c2nccc(/C(C#N)=N/c3ccc(F)cc3)c2O)ccn1 [Compound 11, N-(4-Fluorophenyl)-3-hydroxy-2′-methyl-[2,4′-bipyridine]-4-carbimidoyl nitrile]",82
3,"N#C/C(=N\c1cccc(C(F)(F)F)c1)c1ccnc(-c2ccncc2)c1O [Compound 28, 3-Hydroxy-N-(3-(trifluoromethyl)phenyl)-[2,4′-bipyridine]-4-carbimidoyl nitrile]",70
4,"N#C/C(=N\c1ccc(F)c(C(F)(F)F)c1)c1ccnc(C#N)c1O [Compound 03, 2-Cyano-N-(4-fluoro-3-(trifluoromethyl)phenyl)-3-hydroxyisonicotinimidoyl nitrile]",25
5,"CNC(=O)c1cc(-c2nccc(/C(C#N)=N/c3ccc(F)c(C(F)(F)F)c3)c2O)ccn1 [Compound 31, N-(4-Fluoro-3-(trifluoromethyl)phenyl)-3-hydroxy-2′-(methylcarbamoyl)-[2,4′-bipyridine]-4-carbimidoyl nitrile]",43
6,"N#C/C(=N\c1ccc(F)cc1)c1ccnc(-c2ccnc(F)c2)c1O [Compound 43, 2′-Fluoro-N-(4-fluorophenyl)-3-hydroxy-[2,4′-bipyridine]-4-carbimidoyl nitrile]",69
